Measured values published in PMC7292393 (PLoS ONE, 2020).

Assays:
bovine ubiquitin [1] = molecular target: T1, bovine ubiquitin (Bos taurus, UniProt P0CG53); assay: SPR binding to ubiquitin surface; conditions: Fig 2J
T1 construct: native bovine ubiquitin (U6253); purchased Sigma-Aldrich U6253
Procedure: All injections were performed in a Biacore T200 (GE Healthcare, Chicago, IL) at a flow rate of 20 μl/min in running buffer (20 mM Hepes (pH 7.4), 150 mM NaCl, 5 mM MgCl2, 0.0005% Tween 20) at 25°C. CMD200 and HC1500 sensor chips (Zantec Bioanalytics, Duesseldorf, Germany) were used for the primary and secondary SPR screens and for obtaining SPR sensograms shown in Fig 2I and 2J, respectively. SUMO1 surface in CMD-200 sensor chip and HC1500 sensor chip were generated with immobilization levels 10887 and 19639 resonance units (RU), respectively. Ubiquitin surface in HC1500 sensor chip was generated with 6106 RU. Human SUMO1 and bovine ubiquitin biosensors were prepared by standard amine coupling chemistry as follows: An equal volume of 0.1 M N-hydroxysuccinimide (NHS) and 0.4 M ethyl(dimethylaminopropyl) carbodiimide was injected for 7 min at 5 μl/min over a single flow cell. Following this step, human SUMO1 or bovine ubiquitin (100 μg/ml in pH 4.5 acetate buffer) was injected for 15 min, immediately followed by a 7 min injection of 1M ethanolamine (pH 9). […] RUmax was calculated as 8320/MW ratio, where 8320 is AU of human SUMO1 immobilized onto the chip and MW ratio is the ratio of MW (Da) of SUMO1 to flavonoid. […]

bovine ubiquitin [2] = molecular target: T1, bovine ubiquitin; assay: Fluorescence quenching of fisetin; format: binding; conditions: 0.5 μM fisetin, corrected for dilution
Procedure: (§1) The spectrum between 390–600 nm was measured with a PerkinElmer LS-55 fluorescence spectrometer. […] Excitation and emission slit wavelengths were 5 and 10 nm, respectively, with scan speed of 500 nm/min. […] Values were corrected for dilution as follows: Relative fluorescence values were calculated by subtracting fluorescence quenching observed upon addition of buffer alone.

human SUMO1 [3] = molecular target: T2, human SUMO1 (Homo sapiens, UniProt P63165); assay: Fluorescence quenching of fisetin; format: binding; conditions: 0.5 μM fisetin, emission 511.5 nm, corrected for dilution
T2 construct: encoding amino acids 1–97 of mature human SUMO1; host or cells: E. coli BL21 Rosetta (DE3)
Procedure: as §1

SUMO1^Δ15 = molecular target: T3, SUMO1^Δ15 (Homo sapiens, UniProt P63165); assay: Differential scanning fluorimetry (DSF) thermal shift; format: binding; conditions: 2 μM SUMO1^Δ15, fisetin 20 to 200 μM
T3 construct: encoding amino acids 1–97 of mature human SUMO1; made in house; host or cells: E. coli BL21 Rosetta (DE3)
Procedure: Here we used a variant of the human SUMO1 called SUMO1^Δ15 in which the N-terminal 15 amino acids of SUMO1 are removed. The first 15 amino acids of human SUMO1 are weakly conserved and reported to be unstructured, and so therefore might contribute to its instability. […] We next compared SUMO1^Δ15 directly with wild-type SUMO1.
Fluorescence-based thermal shift assays known as differential scanning fluorimetry (DSF) were performed following the general protocol described in [28]. In short, 20 μl reactions were prepared with 2 μM human SUMO1 or SUMO1^Δ15 protein exchanged in DSF buffer (50 mM Tris-Cl pH 8.0, 150 mM NaCl, 10% glycerol), 10X SYPRO Orange (ThermoFisher Scientific, Waltham, MA), and 0.3 μl of DMSO control or flavonoid dissolved in DMSO. PCR plates (white non-skirted, 96-well) were sealed with optical film, centrifuged, and incubated at 4 °C for 30 min prior to analysis. Thermal scanning (20°C for 30 s, followed by ramping from 20 °C to 90 °C at 0.5 °C/15 s) was performed using a real-time PCR setup (CFX384 Touch, Biorad, Hercules, CA) with filter sets for measurement of relative fluorescence units (RFU) at 0.5°C intervals. Tm was calculated from the maxima of the first derivative of RFU/temperature using GraphPad Prism7. For the HSF1 denaturation experiment, recombinantly expressed and affinity purified human HSF1 was exchanged in DSF buffer. […]

human SUMO1 [4] = molecular target: T2, human SUMO1; assay: Surface plasmon resonance (SPR) primary screen; format: binding;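 also: recombinant human SUMO1 amine-coupled to a sensor chip, blank activated and quenched reference flow cell, flavonoids injected 2 min then 1 min dissociation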

T2 sequence (P63165 1-97): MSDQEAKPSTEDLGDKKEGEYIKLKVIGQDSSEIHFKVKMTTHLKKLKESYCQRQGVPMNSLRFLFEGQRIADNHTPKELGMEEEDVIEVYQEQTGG
T3 sequence (P63165 with tags, fused parts or gaps limits assumed): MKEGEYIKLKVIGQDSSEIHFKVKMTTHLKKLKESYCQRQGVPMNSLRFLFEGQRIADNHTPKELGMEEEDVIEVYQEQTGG

In the case of `O=c1c(O)c(-c2ccc(O)c(O)c2)oc2cc(O)ccc12` [Fisetin, 3,3',4',7-tetrahydroxyflavone], the “SPR binding to bovine ubiquitin” value (bovine ubiquitin [1]) was “failed to bind to bovine ubiquitin”, the “SPR binding to bovine ubiquitin” value (bovine ubiquitin [1]; listed as fisetin) was “no appreciable binding” and the “quenching of fisetin fluorescence by ubiquitin” value (bovine ubiquitin [2]) was “only marginal quenching”. For the same molecule, the “quenching of fisetin fluorescence by SUMO1” value (human SUMO1 [3]) was “Saturable binding was observed”, the “dose-dependent effect on DSF thermogram of SUMO1^Δ15” value (SUMO1^Δ15) was “thermal destabilization” and the “SPR Screens 1°” value (human SUMO1 [4]; 500 μM flavonoid in DMSO, cut-off of %RUmax of ~15) was “✓ (%RUmax with binding activity above cut-off)”. The “interaction in SPR primary screen” value (human SUMO1 [4]; 500 μM, %RUmax above threshold of ~15%) was “interacted with SUMO1 in the primary screen” and the “%RUmax” value (human SUMO1 [4]; SPR primary screen, 500 μM flavonoid in DMSO, (Mean RU/RUmax)*100) was 18.9%.
